Test results reported in ChEMBL document CHEMBL1201862, “PubChem BioAssay data set” (2004).
The source made the active and inactive calls.

Tests used:
cells [1] = format: functional, cell-based
cells [2] = format: functional, cell-based; remark: listed apart in the source
[3] = target: T1, Ubiquitin-conjugating enzyme E2 N (Homo sapiens, UniProt P61088); format: functional;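 also: Dose-response confirmation in a TR-FRET assay detecting UBC13-driven polyubiquitin chain formation, inhibition measured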
T1 sequence (P61088 whole entry): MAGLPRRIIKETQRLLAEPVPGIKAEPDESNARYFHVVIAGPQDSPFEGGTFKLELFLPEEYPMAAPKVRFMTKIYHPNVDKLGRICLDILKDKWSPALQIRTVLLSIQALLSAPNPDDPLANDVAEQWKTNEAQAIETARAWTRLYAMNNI

Protein skinhead-1 = target: T2, Protein skinhead-1 (Caenorhabditis elegans, UniProt P34707); format: functional
T2 sequence (P34707 whole entry): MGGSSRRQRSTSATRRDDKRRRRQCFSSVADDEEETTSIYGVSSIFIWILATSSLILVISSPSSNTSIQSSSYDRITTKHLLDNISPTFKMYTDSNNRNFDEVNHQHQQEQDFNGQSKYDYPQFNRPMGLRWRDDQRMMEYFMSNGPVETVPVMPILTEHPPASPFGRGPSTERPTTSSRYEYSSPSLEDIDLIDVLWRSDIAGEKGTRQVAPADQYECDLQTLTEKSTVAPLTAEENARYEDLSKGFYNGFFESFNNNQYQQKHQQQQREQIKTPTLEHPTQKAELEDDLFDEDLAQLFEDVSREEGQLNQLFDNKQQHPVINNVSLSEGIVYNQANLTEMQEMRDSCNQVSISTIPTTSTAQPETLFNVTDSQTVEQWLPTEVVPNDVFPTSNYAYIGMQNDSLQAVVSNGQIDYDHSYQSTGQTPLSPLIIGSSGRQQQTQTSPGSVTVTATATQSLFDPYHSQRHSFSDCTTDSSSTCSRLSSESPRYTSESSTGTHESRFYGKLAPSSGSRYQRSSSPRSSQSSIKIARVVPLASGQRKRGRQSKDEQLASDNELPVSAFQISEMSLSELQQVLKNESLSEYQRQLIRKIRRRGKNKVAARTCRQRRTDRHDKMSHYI

[4] = intracellular Trypanosoma cruzi inhibitors in host cells – cell-based, plate reader, cherry-pick samples, set 3, dose response (AID 651818); format: functional;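 also: compounds incubated with infected cells for about four days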
[5] = inhibitors of HIV Env-driven cell fusion, dose response, cherry-pick (AID 652057); format: functional, cell-based
[6] = ZM109 Env clade C HIV-1 fusion inhibitors, dose response, HeLa effector, CEM target cells, luciferase, cherry-pick (AID 652058); format: functional, cell-based
[7] = off-target signal loss in HeLa-CEM21 co-culture – HeLa F-luc CTL cells, cherry-picked, counter-screen for HIV-1 Env fusion inhibitor project, dose response (AID 652040); format: functional, cell-based;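 also: potency for signal decrease marking cytotoxic or nonspecific inhibition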
[8] = inhibitors of clade B AD8 Env fusion, dose response, cell-based, cherry-pick (AID 652062); format: functional;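 also: luciferase signal from cell-cell fusion driven by HIV-1 clade B AD8 Env; potency is for inhibitors of fusion seen as a drop in luminescence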
[9] = target: T3, Replicative DNA helicase DnaB (Mycobacterium tuberculosis, UniProt P9WMR3); test: DnaB intein splicing inhibitors, dose response, biochemical, cell-free fluorescence (AID 449749); format: functional
T3 sequence (P9WMR3 whole entry): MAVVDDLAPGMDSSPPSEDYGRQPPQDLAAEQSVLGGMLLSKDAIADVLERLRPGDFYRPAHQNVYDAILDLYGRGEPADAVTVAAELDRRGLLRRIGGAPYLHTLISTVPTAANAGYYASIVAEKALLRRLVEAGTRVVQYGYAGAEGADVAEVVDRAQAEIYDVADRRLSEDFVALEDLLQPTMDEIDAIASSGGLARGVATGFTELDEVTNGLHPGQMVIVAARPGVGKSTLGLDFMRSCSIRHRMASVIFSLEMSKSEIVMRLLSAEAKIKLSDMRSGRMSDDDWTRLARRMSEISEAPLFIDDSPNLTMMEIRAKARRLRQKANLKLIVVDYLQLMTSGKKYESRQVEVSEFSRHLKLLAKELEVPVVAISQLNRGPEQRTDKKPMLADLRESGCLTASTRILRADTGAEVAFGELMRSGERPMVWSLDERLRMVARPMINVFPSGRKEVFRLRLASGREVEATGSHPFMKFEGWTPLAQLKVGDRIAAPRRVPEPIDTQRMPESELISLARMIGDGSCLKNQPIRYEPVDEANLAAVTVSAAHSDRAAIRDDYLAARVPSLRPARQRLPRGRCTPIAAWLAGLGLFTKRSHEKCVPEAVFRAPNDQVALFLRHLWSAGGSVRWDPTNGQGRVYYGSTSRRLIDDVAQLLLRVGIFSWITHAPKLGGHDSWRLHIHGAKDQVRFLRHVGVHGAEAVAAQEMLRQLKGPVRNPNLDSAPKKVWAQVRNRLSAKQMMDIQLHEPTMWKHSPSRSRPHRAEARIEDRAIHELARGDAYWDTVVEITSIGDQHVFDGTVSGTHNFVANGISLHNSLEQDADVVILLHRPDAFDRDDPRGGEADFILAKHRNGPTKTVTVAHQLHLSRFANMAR

Protein RecA = target: T4, Protein RecA (Mycobacterium tuberculosis, UniProt P9WHJ3); test: Fluorescence Cell-Free Homogeneous Dose Retest to Identify Inhibitors of RecA-Intein Splicing Activity. [Related pubchem assays (depositor defined):AID2097, AID2223, AID489010, AID492950]; format: functional
T4 sequence (P9WHJ3 whole entry): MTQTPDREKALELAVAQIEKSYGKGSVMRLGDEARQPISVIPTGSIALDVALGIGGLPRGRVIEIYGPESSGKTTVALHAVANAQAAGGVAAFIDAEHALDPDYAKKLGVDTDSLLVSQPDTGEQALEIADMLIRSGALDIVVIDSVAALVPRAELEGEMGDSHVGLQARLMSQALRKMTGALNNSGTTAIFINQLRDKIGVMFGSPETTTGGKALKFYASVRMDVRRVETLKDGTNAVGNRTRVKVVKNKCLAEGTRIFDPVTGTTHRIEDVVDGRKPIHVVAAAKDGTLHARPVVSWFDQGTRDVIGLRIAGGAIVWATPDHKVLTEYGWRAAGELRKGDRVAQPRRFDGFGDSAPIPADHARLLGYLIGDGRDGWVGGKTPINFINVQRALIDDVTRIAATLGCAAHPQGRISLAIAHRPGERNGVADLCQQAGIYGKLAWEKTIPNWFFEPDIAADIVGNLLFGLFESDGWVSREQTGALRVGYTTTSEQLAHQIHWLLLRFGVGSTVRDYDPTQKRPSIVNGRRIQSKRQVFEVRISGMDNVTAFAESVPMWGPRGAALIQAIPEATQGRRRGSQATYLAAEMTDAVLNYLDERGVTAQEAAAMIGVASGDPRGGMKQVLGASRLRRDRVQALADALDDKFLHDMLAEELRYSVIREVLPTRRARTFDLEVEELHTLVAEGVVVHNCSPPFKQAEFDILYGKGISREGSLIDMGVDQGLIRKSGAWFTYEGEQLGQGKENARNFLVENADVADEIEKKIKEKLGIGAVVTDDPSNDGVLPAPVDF

Compound: Cc1cccc(NC(=O)Cc2noc3ccccc23)c1
- EC50 (cells [1]): > 350 µM (not active)
- EC50 (cells [2]): 115 µM (active)

Compound: N#Cc1ccsc1NC(=O)C1CCN(C(=O)c2ccc(F)cc2)CC1
- IC50 [3]: > 20 µM (inactive)

Compound: CSc1cccc(NC(=O)c2cccc3cccnc23)c1
- IC50 (Protein skinhead-1): 14.7 µM (active)

Compound: CCOC(=O)c1ccccc1NC(=O)Cc1ccccc1OC
- IC50 (Protein skinhead-1): > 100 µM (inactive)

Compound: C[C@@H]1CN([C@@H](C)CO)C(=O)c2cccc(NC(=O)CCCCCC(=O)Nc3ccccc3N)c2O[C@@H]1CN(C)Cc1ccc(Cl)c(Cl)c1
- AC50 [4]: 2.51 µM (active)

Compound: COc1ccc(S(=O)(=O)Nc2ccc3c(c2)CC(=O)N([C@H](C)CO)C[C@@H](C)[C@H](CN(C)CC2CCCCC2)O3)cc1
- AC50 [4]: 2.97 µM (active)

Compound: O=C(CN1CCOCC1)c1cccc2ccccc12
- IC50 (Protein skinhead-1): > 100 µM (inactive)

Compound: CC1CCN(C(=O)c2ncn3c2C(=O)NC[C@@H]3C)CC1
- AC50 [5]: 3.59 µM (active)
- AC50 [6]: 15.7 µM (active)
- AC50 [7]: 18 µM (active)

Compound: O=C(c1nc[nH]c1C(=O)N1CCc2ccccc2C1)N1CCc2ccccc2C1
- IC50 (Protein skinhead-1): > 100 µM (inactive)

Compound: FC(F)(F)c1cc(CCN2CCNC[C@@H]2c2ccccc2)cc(C(F)(F)F)c1
- IC50 [3]: > 20 µM (inactive)

Compound: CCOc1ccccc1NC(=O)COc1ccc2c(c1)OCO2
- EC50 (cells [1]): > 350 µM (not active)
- EC50 (cells [2]): > 350 µM (not active)

Compound: COc1ccc(S(=O)(=O)N(C)C[C@@H]2Oc3ncc(-c4cc5ccccc5o4)cc3C(=O)N([C@H](C)CO)C[C@@H]2C)cc1
- AC50 [5]: 10.5 µM (active)
- AC50 [8]: 16.4 µM (active)

Compound: Cc1ccc(C(=O)NCCCNCCCN(C)C)cn1
- IC50 [3]: > 20 µM (inactive)

Compound: Cc1onc(-c2ccccc2)c1C(=O)OCCOc1cccc(Cl)c1
- AC50 [7]: > 70 µM (inactive)

Compound: CCCCCCn1c(N2CCC(C(N)=O)CC2)nc2c1c(=O)n(C)c(=O)n2C
- AC50 [9]: > 380 µM (inactive)
- EC50 (Protein RecA): > 380 µM (inactive)
- IC50 (Protein skinhead-1): > 100 µM (inactive)

Compound: CSc1nsc(SCc2ccc(F)cc2)n1
- IC50 (Protein skinhead-1): 18.9 µM (active)

Compound: C[C@H](CO)N1C[C@H](C)[C@@H](CN(C)Cc2ccc(C(F)(F)F)cc2)Oc2c(NC(=O)Nc3ccc(F)cc3)cccc2C1=O
- AC50 [4]: 5.99 µM (active)

Compound: C[C@H](CO)N1C[C@H](C)[C@@H](CN(C)Cc2ccc(C(=O)Nc3ccccc3N)cc2)Oc2c(NC(=O)c3cnccn3)cccc2C1=O
- AC50 [4]: 2.45 µM (active)

Compound: C[C@H](CO)N1C[C@H](C)[C@H](CN(C)C(=O)Nc2ccc(C(F)(F)F)cc2)Oc2c(NC(=O)c3nc4ccccc4s3)cccc2C1=O
- AC50 [4]: 2.35 µM (active)

Compound: Cc1ccc(-c2nc(CS(=O)(=O)CC(=O)NC3CCC(C)CC3)c(C)o2)cc1 (stereo not given)
- EC50 (cells [1]): > 350 µM (not active)
- EC50 (cells [2]): > 350 µM (not active)

Compound: C[C@H](CO)N1C[C@H](C)[C@H](CN(C)Cc2ccc3c(c2)OCO3)Oc2c(NC(=O)Nc3ccc(C(F)(F)F)cc3)cccc2C1=O
- AC50 [4]: 0.956 µM (active)

Compound: Cc1ccc(S(=O)(=O)Nc2ccc3c(c2)C(=O)N([C@H](C)CO)C[C@H](C)[C@H](CN(C)Cc2ccc(C(F)(F)F)cc2)OCCCC[C@@H](C)O3)cc1
- AC50 [4]: 3.01 µM (active)

Compound: COc1ccc(CCN(Cc2cccs2)S(=O)(=O)c2ccc(-n3cnnn3)cc2)cc1OC
- AC50 [5]: 12.7 µM (active)
- AC50 [6]: 20.3 µM (active)
- AC50 [8]: 9.27 µM (active)

Compound: COc1ccc(C)cc1NC(=O)c1ccc(N(C)S(C)(=O)=O)cc1
- EC50 (cells [1]): > 350 µM (not active)
- EC50 (cells [2]): > 350 µM (not active)

Compound: COc1ccc(C(CNC(=O)c2ccc(-c3nc4ccccc4s3)o2)N2CCCC2)cc1 (stereo not given)
- IC50 [3]: > 20 µM (inactive)

Compound: CCOc1cc2c(cc1OCC)C(C(=O)O)C(c1cc(OC)c(OC)c(OC)c1)N(C)C2=O (stereo not given)
- IC50 (Protein skinhead-1): > 100 µM (inactive)

Compound: CCc1ccc(-c2cc3c(=O)n(CC(=O)NCCCN4CCC(Cc5ccccc5)CC4)nc(C)n3n2)cc1
- IC50 [3]: > 20 µM (inactive)

Compound: C1CC1Cc1noc(CN2CCN(CC3CC3)CC2)n1
- EC50 (cells [1]): > 350 µM (not active)
- EC50 (cells [2]): > 350 µM (not active)

Compound: COc1ccc(NC(=O)Nc2ccc3c(c2)C(=O)N([C@H](C)CO)C[C@H](C)[C@H](CN(C)S(=O)(=O)c2ccc(F)cc2)O3)cc1
- AC50 [5]: 13 µM (active)
- AC50 [6]: 16.6 µM (active)
- AC50 [8]: 27.5 µM (active)

Compound: C[C@@H]1CN([C@H](C)CO)C(=O)c2cccc(NS(=O)(=O)c3ccc(Cl)cc3)c2O[C@@H]1CN(C)Cc1ccccc1
- AC50 [4]: 20 µM (inactive)

Compound: CN(C[C@H](Cc1ccccc1)N(C[C@H](c1ccccc1)N(CCc1ccccc1)N=O)N=O)N=O
- AC50 [5]: 7.62 µM (active)
- AC50 [6]: 9.49 µM (active)
- AC50 [7]: 35.2 µM (active)

Compound: CCOC(=O)CN1C(=N)N(c2nc(NC(C)C)nc(NC(C)C)n2)CC1=O
- EC50 (cells [1]): > 350 µM (not active)
- EC50 (cells [2]): > 350 µM (not active)

Compound: CN1C(=O)c2cc(NS(=O)(=O)c3ccccc3F)ccc2OC[C@@H]2O[C@H](CC(=O)NC3Cc4ccccc4C3)CC[C@@H]21
- AC50 [5]: 2.89 µM (active)
- AC50 [6]: 2.99 µM (active)
- AC50 [8]: 8.06 µM (active)

Compound: CN(C)CCCNC(=O)C(=O)NCC1OCCN1S(=O)(=O)c1cccs1 (stereo not given)
- IC50 [3]: > 20 µM (inactive)

Compound: O=C(NCC1CCCO1)c1sc2cc(Cl)ccc2c1Cl (stereo not given)
- EC50 (cells [1]): > 350 µM (not active)
- EC50 (cells [2]): 66.4 µM (active)
